Patent US7285701B2, “Cyanobacterial nucleic acid fragments encoding proteins useful for controlling plant traits via nuclear or plastome transformation” (BASF Plant Science GmbH, priority 2001, dated 2007)
Where two headings read alike, the source gives them in different places.

Columns and labels:
[1] = system: 4′-fluoro-6-[(alpha,alpha,alpha,-trifluoro-m-toly)oxy]-picolinamide resistant mutants; test: Cross-resistance test of resistant mutants against other PDS inhibitors; type: cell-based, Synechocystis
[2] = system: wild type Synechocystis PCC6803; test: Paper disc assay on BG-11 agar, wild type Synechocystis; type: cell-based
Source text: (§1) Alternatively screens can be performed on agar plates with “lawns” of cyanobacteria and paper discs impregnated with test compounds. In this case, zones of inhibited growth around paper discs can be detected after two or three days.
(§2) To set up the assay, wild type cells of Synechocystis were mixed with equal volumes of 2× top agar and 2× BG-11 and overlaid on top of BG-11 agar plate. Cells normally appear in 3-5 days after plating. This method will yield an even and uniform lawn of cells. Upon solidifying, test compounds are then spotted on Whatman filter paper disc before being placed on agar plates. Four compounds can be tested on a single plate. Using this screening, in an example employing 160 different compounds, predominantly compounds of novel mode of action, have been tested on this microbe, and on average, 25% of the compounds show at least some activity.
Susceptibility of Synechocystis to 4′-fluoro-6-[(alpha,alpha,alpha,-trifluoro-m-toly)oxy]-picolinamide was tested using a paper disc assay in which 4′-fluoro-6-[(alpha,alpha,alpha,-trifluoro-m-toly)oxy]-picolinamide was spotted in a paper disc before being placed on a lawn of cells. In determining susceptibility, the size of the zone of inhibition is indicative of the potency of the compound.
(§3) A rapid plate based assay for screening and identifying active compounds is then performed. Wild type cells of Synechocystis are mixed with equal volumes of 2× top agar and 2× BG-11. The mixture is then overlaid on top of a BG-11 agar plate. Cells normally appear 3-5 days after plating. This method will yield an even and uniform lawn of cells.
(§4) After solidification of the agar, test compounds were spotted on Whatman filter paper disc, and then were placed on agar plates. Four different compounds were tested on a single plate. Using this screening method, 160 different compounds were tested, predominantly compounds of novel mode of action. On average, 25% of the compounds show at least some activity.
The resistant phenotype of selected mutant cell lines was further tested in solid medium as well as in suspension cultures. […]

[3] = system: wild type Synechocystis; test: Dose-response in liquid/suspension culture, wild type Synechocystis; type: cell-based, Synechocystis PCC6803
Procedure: (§5) To identity a target site gene activity, two types of Bluegreen algae, Synechocystis PCC 6803 (American Type Culture Collection, Rockville, Md.) and Anabaena PCC 7120 (American Type Culture Collection, Rockville, Md.) can be used for the screen. One is grown in microtiter dishes in BG-11 medium supplemented with various concentrations of the test compounds. Inhibition of growth can be monitored by visual inspection after two to three days of culture. Quantitative growth measurements can be taken photometrically starting one day after inoculation.
(§6) These experiments also established a dose-response curve. A lethal concentration for resistant mutant selection was 1-2 μM of 4′-fluoro-6-[(alpha,alpha,alpha,-trifluoro-m-toly)oxy]-picolinamide. Dose-response studies were also performed in 96-sell microtiter plates on wild type and putative 4′-fluoro-6-[(alpha,alpha,alpha,-trifluoro-m-toly)oxy]-picolinamide resistant mutants of Synechocystis. The growth of the culture was measured daily at an optical density of 690 nm.
(§7) For wild type cells (WT), the growth was inhibited at concentrations of 4′-fluoro-6-[(alpha,alpha,alpha,-trifluoro-m-toly)oxy]-picolinamide of <0.25 μM, with an I50 in the sub μM range. By contrast, the I50 values are between 1-2 μM for 5-1/12E, and in the range of 5-10 μM for 7-3/12F and 7-4/12F, respectively.
(§8) Wild type cells were inhibited at concentrations of <0.25 uM 4′-fluoro-6-[(alpha,alpha,alpha,-trifluoro-m-toly)oxy]-picolinamide, with an I50 in the sub μM range. In contrast I50 values are between 1-2 μM for 5-1/12E and 5-1/12F, and between 5-10 μM for 7-3/12F and […]. Thus, because the cell lines with the mutant pds genes are far more resistant than wild type cell lines, there is evidence that the selected cultures contain 4′-fluoro-6-[(alpha,alpha,alpha,-trifluoro-m-toly)oxy]-picolinamide resistance.

[4] = system: Synechocystis EMS resistant mutant cell lines; test: Dose-response in suspension culture, resistant mutant cell lines; type: cell-based, Synechocystis PCC6803; details: seven days, read-out: I50
Procedure: as §6, §7, §8

[5] = system: Synechocystis PCC 6803; test: Susceptibility of Synechocystis PCC 6803 to known herbicides (Table 2); type: cell-based
Procedure: as §5, §1, §2
A rapid plate based assay for screening lead compounds was developed as follows. First, either one of two types of bluegreen algae, Synechocystis PCC6803 and Anabaen PC 7120 were grown in microtitre dishes containing BG-11 supplemented with various concentrations of 160 different test compounds. Alternatively, screens can be performed on agar plates with lawns of cyanobacteria and paper discs impregnated with test compounds.
as §3, §4
Cyanobacteria are a particularly useful source of genes for enhancing crop performance due to their similarity, and ancestral connection, to plant chloroplasts. In particular, cyanobacterial genes may be useful for transformation directly into the chloroplast genome due to similarities in genetic elements. Similarities in cyanobacterial genes and proteins to those from chloroplasts can carry over to a shared susceptibility to herbicides.

[6] = system: Anabaena PCC7120; test: In vivo growth in BG-11 media with commercial herbicides; type: cell-based; details: 100 nM, one week of culture in BG-11 media
Procedure: (§9) In vivo resistance of cyanobacteria to PURSUIT® imazethapyr and OUST® sulfometuron methyl. As a preliminary matter, Synechocystis PCC6803 and Anabaenia PCC7120 were tested for susceptibility to PURSUIT® imazethapyr and OUST® sulfometuron methyl. AHAS genes which are resistant to these herbicides are excellent candidates for transformation in plant plastomes and nuclear genomes. Such transformants can be used in a weed control strategy using a combination of transgenic herbicide resistant crops and herbicides.
(§10) In vivo testing of Synechocystis PCC6803 and Anabaena PCC7120 was done by culturing the organisms in varying concentrations of the commercial herbicides. […] For relative comparison purposes a concentration of 1 μM PURSUIT® imazethapyr in agar media is lethal to Arabidopsis plants.

[7] = system: Synechocystis PCC6803; test: as above; type: cell-based; details: 100 nM, one week of culture in BG-11 media
Procedure: as §9, §10

[8] = system: Synechocystis AHAS; test: In vitro AHAS assay; type: biochemical, Synechocystis PCC6803; details: 100 nM
Procedure: (§11) AHAS is the target site of both PURSUIT® imazethapyr and OUST® sulfometuron methyl herbicides. To determine if resistance to the herbicides is due to a natural resistance to inhibition of the acetohydroxyacid synthase enzymes from the cyanobacteria, or if it is due to alternative mechanisms (e.g. lack of entry into the cell), the in vitro activity of the AHAS enzyme in the presence of the herbicides was tested.
(§12) AHAS assays were performed with slight modification as described by Singh et. al (Singh B K, Stidham M A, Shaner D L, 1988, Assay for acetohydroxyacid synthase from plants. Anal Biochem 171: 173-179).
(§13) Synechocystis PCC6803 and Anabaena PCC7120 were cultured in 1.5 L of BG-11 media. Cells were collected by centrifuge and stored frozen at −80° C. Frozen cells were thawed and placed in a 30 mL Bead Beater cell disruptor chamber (BioSpec Corp Bartlesville, Okla.). Seven mL of acid washed sand was added. The chamber was filled with 2× ASHA assay buffer, consisting of 100 mM HEPES pH7.0, 200 mM pyruvate, 20 mM MgCl2, 2 mM TPP (Thiamine pyrophosphate) and 100 μM FAD (flavin adenine dinucleotide).
(§14) The Bead Beater cell disruptor was packed in ice and turned on for 10 seconds, followed by cooling for 3 minutes. This cycle was repeated five times. The extract was transferred into a centrifuge tube, and spun in a Beckman SA20 (Beckman, Fullerton, Calif.) rotor for 15 minutes at 17,000 rpms. […]

[9] = system: Anabaena AHAS; test: In vitro AHAS assay; type: biochemical, Anabaena PCC7120; details: 100 nM
Procedure: as §11, §12, §13, §14

[10] = system: E. coli M1262 expressing the cyanobacterial ahas gene; test: Growth on minimal media of E. coli M1262 expressing the cyanobacterial ahas gene; type: cell-based
Source text: To confirm that these plasmids carry functional AHAS sequences, plasmid DNA from each of the ten rescued colonies was transformed into the E. coli strain M1262. (leuB6, ilv1614, ilvH612, λ^−, relA1, spoT1, ilvB619, ilvG603, ilfG605(am), thi-1) (Genetics Stock Center, Yale University). This strain of E. coli is lacking in AHAS. […] The ahas gene can therefore be used for achieving herbicide tolerance in crops by transformation into the nuclear or plastidic genome.

[11] = wild type cells, suspension culture, seven days

O=C(Nc1cccc2c1C(=O)c1cccc(NC(=O)c3cc(C(=O)Nc4cccc5c4C(=O)c4cccc(NC(=O)c6ccccc6)c4C5=O)c(C(=O)Nc4cccc5c4C(=O)c4cccc(NC(=O)c6ccccc6)c4C5=O)cc3C(=O)Nc3cccc4c3C(=O)c3cccc(NC(=O)c5ccccc5)c3C4=O)c1C2=O)c1ccccc1 [1,2,4,5-benzenetetracarboxamide,N,N′,N″,N′″-tetrakis[5-(benzoylamino)-9,10-dihydro-9,10-dioxo-1-anthracenyl]]
cross-resistance of the resistant mutants [1]: exhibited cross-resistance

O=C(Nc1ccc(F)cc1)c1cccc(Oc2cccc(C(F)(F)F)c2)n1 [4′-fluoro-6-[(alpha,alpha,alpha,-trifluoro-m-toly)oxy]-picolinamide]
concentrations active against Synechocystis PCC6803 ([2]; BG-11 solid medium, paper disc assay): 1 to 2 µM
lethal concentration for resistant mutant selection ([2]; Synechocystis): 1 to 2 µM
growth of wild type Synechocystis ([2]; paper disc assay, 0.5 nmol): significantly inhibited
I50 of growth inhibition ([3]; liquid cultures): lower sub-micromolar range
I50 [3, 11]: sub μM range
concentration at which growth was inhibited [3, 11]: < 0.25 µM
IC50 ([4]; mutant 5-1/12E): 1 to 2 µM
IC50 ([4]; mutant 5-1/12F): 1 to 2 µM
IC50 ([4]; mutant 5-4/12F): 5 to 10 µM
IC50 ([4]; mutant 7-3/12F): 5 to 10 µM
IC50 ([4]; mutant 7-4/12F): 5 to 10 µM

CC(=O)/C(C(=O)c1ccc(Cl)cc1Cl)=C(/N)SCc1ccccc1 [(2E)-2-[amino(benzylsulfanyl)methylene]-1-(2,4-dichlorophenyl)-1,3-butanedione]
cross-resistance of the resistant mutants [1]: exhibited cross-resistance

N#Cc1cc(Br)c(O)c(Br)c1 [Bromoxynil]
Activity Rating (++ = highest) [5]: +

CN(C)C(=O)Nc1ccc(Cl)cc1 [CMU]
Activity Rating (++ = highest) [5]: +

CCOC(=O)Nc1cccc(OC(=O)Nc2ccccc2)c1 [Desmedipham]
Activity Rating (++ = highest) [5]: ++

CN(C)C(=O)Nc1ccccc1 [Fenuron]
Activity Rating (++ = highest) [5]: ++

CN(C)C(=O)Nc1ccc(Cl)cc1 [Monuron]
Activity Rating (++ = highest) [5]: ++

COC(=O)c1ccccc1S(=O)(=O)NC(=O)Nc1nc(C)cc(C)n1 [OUST® sulfometuron methyl, sulfometuron methyl]
inhibition of growth [6]: No inhibition of growth
inhibition of growth [7]: No inhibition of growth
inhibition of AHAS enzyme [8]: No significant inhibition
inhibition of AHAS enzyme [9]: No significant inhibition
growth on minimal media in the presence of the herbicide [10]: capable of growing

COC(=O)Nc1cccc(OC(=O)Nc2cccc(C)c2)c1 [Phenmedipham]
Activity Rating (++ = highest) [5]: ++

CCNc1nc(Cl)nc(NCC)n1 [Simazine]
Activity Rating (++ = highest) [5]: ++

Cc1cc(OCC=C(Cl)Cl)nc(Oc2ccnc(C(F)(F)F)c2)c1 [pyridine, 2-[(3,3-dichloro-2-propenyl)oxy]-4-methyl-6-[(2-(trifluoromethyl)-4-pyrodinyl]oxy]]
cross-resistance of the resistant mutants [1]: exhibited cross-resistance
